Measurements published in US20230257480A1, “ENHANCING BLOOD-BRAIN BARRIER DRUG TRANSPORT BY TARGETING ENDOGENOUS REGULATORS” (THE BOARD OF TRUSTEES OF THE LELAND STANFORD JUNIOR …, priority 2019, published 2023).

Molecular target: T1, ALPL (Mus musculus, UniProt P09242)
T1 construct: from tissue; host or cells: brain sections (cerebral cortex vasculature) of aged C57BL/6 mice dosed in vivo
T1 sequence (P09242 18-501): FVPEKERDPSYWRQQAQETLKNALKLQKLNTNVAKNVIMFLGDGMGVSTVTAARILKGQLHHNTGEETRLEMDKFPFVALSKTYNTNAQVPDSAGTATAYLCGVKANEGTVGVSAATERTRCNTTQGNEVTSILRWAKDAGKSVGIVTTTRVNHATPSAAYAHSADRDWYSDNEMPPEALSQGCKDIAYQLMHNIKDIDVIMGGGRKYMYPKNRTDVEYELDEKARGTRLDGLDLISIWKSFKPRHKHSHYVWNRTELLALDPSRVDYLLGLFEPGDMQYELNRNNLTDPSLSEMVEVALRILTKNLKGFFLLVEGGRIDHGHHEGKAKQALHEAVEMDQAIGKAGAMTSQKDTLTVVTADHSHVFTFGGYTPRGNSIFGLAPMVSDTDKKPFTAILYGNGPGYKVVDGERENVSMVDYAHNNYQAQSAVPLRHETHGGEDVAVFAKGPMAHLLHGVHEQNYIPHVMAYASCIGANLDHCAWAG
Experiment: ALPL activity in the cerebral cortex vasculature (Red Alkaline Phosphatase Substrate Kit)
Type: in vivo
Settings: aged (22 m.o.) mice, 8.75 mg/kg intraperitoneally twice per day for three days, vs vehicle
From the text: FIG. 12A is a dot plot representation of cell-surface, druggable gene candidates on brain endothelial cells. Genes were plotted by their degree of blood-brain barrier specificity (Daneman et al., PLoS One (2010). doi:10.1371/journal.pone.0013741) and correlation with plasma uptake. Genes were colored by their upregulation (brown) or downregulation (green) with age. FIG. 12B includes representative images of calcified nodules (Alizarin red staining) detected in aged (23 m.o.—bottom panel) but not young (3 m.o.—top panel) mice, recapitulating nodules seen in pericyte-deficient Pdgfbret/ret mice (Keller et al., Nat. Genet. (2013). doi:10.1038/ng.2723) (representative image of n=5 mice per age). […] FIG. 12E is a graph illustrating quantification of ALPL expression in the cerebral cortex vasculature of young (3 m.o.) and aged (23 m.o.) mice (n=7, two-sided t-test; mean+/−s.e.m.). […] Uptake in the brain endothelium and parenchyma was assessed by flow cytometry and confocal microscopy of the cortex and hippocampus. […] FIG. 12H is a graph illustrating quantification of ALPL activity in the cerebral cortex vasculature of aged (22 m.o.) mice treated with ALPL inhibitor (anti-ALPL) or vehicle and in young (3 m.o.) mice (n=6-9, one-way ANOVA with Tukey's multiple comparisons correction; mean+/−s.e.m.). […]

COc1ccc(OC)c(S(=O)(=O)Nc2cnc3ccccc3c2)c1 [ALPL inhibitor, 2,5-Dimethoxy-N-(quinolin-3-yl)benzenesulfonamide]
ALPL activity in the aged brain vasculature: decreased
